experiment: Drug absorption in human assessed as human intestinal absorption rate; format: ADME, tissue-based, Intestine

Molecule | log10(%HIA +10)
CN1[C@@H]2CC[C@H]1C[C@@H](OC(=O)C(CO)c1ccccc1)C2 (some centres undefined) [ATROPINE] | 2.033
Cn1c(=O)c2c(ncn2CCCNCC(O)c2cc(O)cc(O)c2)n(C)c1=O (centres undefined) [REPROTEROL] | 1.845
CCOC(=O)[C@H](CCc1ccccc1)N[C@@H](C)C(=O)N1Cc2cc(OC)c(OC)cc2C[C@H]1C(=O)O [MOEXIPRIL] | 1.176
CC(C)NCC(O)c1ccc(NS(C)(=O)=O)cc1 (centres undefined) [SOTALOL] | 2.021
CC[C@@H](CO)NCCN[C@@H](CC)CO [ETHAMBUTOL] | 1.954
NCCCC(N)(C(=O)O)C(F)F (centres undefined) [EFLORNITHINE] | 1.813
Cn1c(=O)c2c(ncn2C)n(C)c1=O [CAFFEINE] | 2.041
C[C@](N)(Cc1ccc(O)c(O)c1)C(=O)O [METHYLDOPA] | 1.708
N=C(N)c1ccc(OCCCCCOc2ccc(C(=N)N)cc2)cc1 [PENTAMIDINE] | 1
NCCCC[C@H](N[C@@H](CCc1ccccc1)C(=O)O)C(=O)N1CCC[C@H]1C(=O)O [LISINOPRIL ANHYDROUS] | 1.544
O=C(COCCOCCOCC(=O)Nc1c(I)cc(I)c(C(=O)O)c1I)Nc1c(I)cc(I)c(C(=O)O)c1I [IOTROXIC ACID] | 1.176
CCN1CCCC1CNC(=O)c1cc(S(N)(=O)=O)ccc1OC (centres undefined) [SULPIRIDE] | 1.732
OC[C@@H](O)[C@@H](O)[C@H](O)[C@H](O)CO [MANNITOL] | 1.415
CC(=O)Oc1cc(C(C)C)c(OCCN(C)C)cc1C [MOXISYLYTE] | 1.903
NC(=O)N1C(=O)/C(=C(\O)c2cccs2)c2cc(Cl)ccc21 [TENIDAP] | 1.996
C[C@H]1O[C@H](O[C@H]2[C@H](O)[C@@H](O)[C@@H](O[C@H]3[C@H](O)[C@@H](O)C(O)O[C@@H]3CO)O[C@@H]2CO)[C@H](O)[C@@H](O)[C@@H]1N[C@H]1C=C(CO)[C@@H](O)[C@H](O)[C@H]1O (some centres undefined) [ACARBOSE] | 1.079
O=C(O)c1cc(=O)c2c(OCC(O)COc3cccc4oc(C(=O)O)cc(=O)c34)cccc2o1 [CROMOLYN] | 1.021
Nc1ncnc2c1ncn2CCOCP(=O)(O)O [ADEFOVIR] | 1.342
CC(C)(C)NC[C@H](O)COc1nsnc1N1CCOCC1 [TIMOLOL] | 2.021
COc1ccccc1N1CCN(CCCNc2cc(=O)n(C)c(=O)n2C)CC1 | 1.945
Cc1c(N(C)C)c(=O)n(-c2ccccc2)n1C [AMINOPYRINE] | 2.041
CCCc1cc(=O)[nH]c(=S)[nH]1 [PROPYLTHIOURACIL] | 1.929

Molecule | log10(%HIA +10)
COc1nc(C)nc(Cl)c1N=C1NCCN1 [MOXONIDINE] | 1.991
COCC(=O)O[C@]1(CCN(C)CCCc2nc3ccccc3[nH]2)CCc2cc(F)ccc2[C@@H]1C(C)C [MIBEFRADIL] | 1.898
CN1C[C@H](C(=O)N[C@]2(C)O[C@@]3(O)[C@@H]4CCCN4C(=O)[C@H](Cc4ccccc4)N3C2=O)C[C@@H]2c3cccc4[nH]cc(c34)C[C@H]21 [DIHYDROERGOTAMINE] | 1.653
O=C1c2c(O)ccc(O)c2C(=O)c2c(NCCNCCO)ccc(NCCNCCO)c21 [MITOXANTRONE] | 1.176
CCc1cccc2c3c([nH]c12)C(CC)(CC(=O)O)OCC3 (centres undefined) [ETODOLAC] | 1.903
O=C1CN2Cc3c(ccc(Cl)c3Cl)N=C2N1 [ANAGRELIDE] | 1.903
CCOC(=O)[C@H](CCc1ccccc1)N[C@@H](C)C(=O)N1CCC[C@H]1C(=O)O.O=C(O)/C=C\C(=O)O [ENALAPRIL MALEATE] | 1.881
CC(NC(C)(C)C)C(=O)c1cccc(Cl)c1 (centres undefined) [BUPROPION] | 1.987
NCCC(O)(P(=O)(O)O)P(=O)(O)O [PAMIDRONIC ACID] | 1.176
Nc1ccn([C@@H]2CS[C@H](CO)O2)c(=O)n1 [LAMIVUDINE] | 1.987
CCc1oc2ccccc2c1C(=O)c1cc(Br)c(O)c(Br)c1 [BENZBROMARONE] | 1.919
COc1ccc2c(C(=S)N(C)CC(=O)O)cccc2c1C(F)(F)F [TOLRESTAT] | 1.881
CC1(C)S[C@@H]2[C@H](NC(=O)[C@H](N)c3ccc(O)cc3)C(=O)N2[C@H]1C(=O)O [AMOXICILLIN] | 2.016
IVERMECTIN | 1.845
OC[C@H]1O[C@@H](O[C@@H]2[C@@H](CO)O[C@](O)(CO)[C@H]2O)[C@H](O)[C@@H](O)[C@H]1O [LACTULOSE] | 1.025
CCC[C@@H]1C[C@@H](C(=O)N[C@@H]([C@H]2O[C@H](SC)[C@H](O)[C@@H](O)[C@H]2O)[C@@H](C)O)N(C)C1 [LINCOMYCIN] | 1.574
COc1cc(Cc2cnc(N)nc2N)cc(OC)c1OC [TRIMETHOPRIM] | 2.029
O=C(O)c1cc(/N=N/c2ccc(O)c(C(=O)O)c2)ccc1O [OLSALAZINE] | 1.09
COCC1=C(C(=O)OC(C)OC(=O)OC(C)C)N2C(=O)[C@@H](NC(=O)/C(=N\OC)c3csc(N)n3)[C@H]2SC1 (some centres undefined) [CEFPODOXIME PROXETIL] | 1.778
CN(N=O)C(=O)N[C@@H](C=O)[C@@H](O)[C@H](O)[C@H](O)CO [STREPTOZOCIN] | 1
C[C@@H](O)[C@H]1C(=O)N2C(C(=O)O)=C(SCCN=CN)C[C@H]12 [IMIPENEM ANHYDROUS] | 1.176
CO/N=C(\C(=O)N[C@@H]1C(=O)N2C(C(=O)O)=C(COC(N)=O)CS[C@H]12)c1ccco1 [CEFUROXIME] | 1.176
